Patent publication US20230210994A1, “CELL-PENETRATING CONJUGATE SYSTEMS” (Danmarks Tekniske Universitet, priority 2019, published 2023)
Entries after “also recorded” stand apart in the source; their conditions may differ. One block for each compound: values may come before it.

How the values were obtained:
CT26 colon cancer cells = test: Internalization of INS-FITC in CT26 cells, flow cytometry and fluorescent imaging; format: cell-based, mouse
Experimental: CT26 colon cancer cells were seeded in 24-well plates at 100.000 cells/well/mL. After 24 hours, cells were treated with INS-FITC at 10 μM or 30 μM concentration either alone or in combination with the conjugate 4-hydroxybutyl L-tryptophanate in three different molar ratios (1:1, 1:3 or 3:1). Treatments were co-incubated with the CT26 cells for 1 h, 4 h or 24 h. Before observation, cells were washed several times with PBS, and with heparin, to ensure removal of compounds that might remain softly bound to cell membrane and not internalized. Then the washed cells were detached from the wells using trypsin, centrifuged and re-suspended in PBS for analysis by flow cytometry. In flow the cells were gated as singlets (single cell events) and then the fluorescence was recorded for each event in the specific FL channel were the compound has its emission max (INS-FITC: FL1 (525+/−40).

CT-26 cells [1] = test: Internalization of Paclitaxel (PTX) in CT-26 cells measured by flow cytometry; format: cell-based, mouse
Experimental: There is a remarkable increment in the percentage of cells containing PTX when co-administered with the conjugate, especially after 24 hours incubation. (c) depicts the amount of PTX internalization expressed as mean fluorescence intensity (MFI).

CT-26 cells [2] = test: Ethidium-homodimer internalization in CT-26 cells, fluorescent confocal microscopy; format: cell-based, mouse
Experimental: CT-26 cells in culture were co-incubated with the conjugate system, 4-hydroxybutyl L-tryptophanate, (1 mg/ml) and Etidium-homodimer (2 μl/ml) for 1 hour and observed under fluorescent confocal microscope. Working ratio was set as 1:3 and two reaction sets comprising of higher (80 μl) loading and standard loading (40 μl ) were performed. Emission bandwidth was set as 490-550nm and 590-680 nm.

CT-26 cells [3] = test: Cellular internalization of insulin (Novorapid) in CT-26 cells, MALDI-TOF; format: cell-based, mouse; conditions: commercial insulin (20 μl) + conjugate (20 μl), 4 hours
Experimental: MALDI-TOF is a standard technique for analysis of molecules based upon their mass/charge (m/z) ratio. In this study, the inventors exposed CT-26 cells with commercial insulin (20 μl) and conjugate system, 4-hydroxybutyl L-tryptophanate (20 μl). After 4 hours, the cells were sonicated (ruptured) and cell-debris removed; Resulting supernatant was subjected to MALDI analysis.

[4] = tested on: pig intestine (gut epithelium); test: Binding of conjugate system to the pig intestine (gut epithelium) ex vivo
Experimental: Biological functionality and compliance was tested utilizing intestinal tissue from pigs. A cross section of the pig intestine (1 cm^2)was cleaned and subjected to the conjugate (1 mg/ml; 3.65 mM). After incubation (1 hour) of said tissue with the conjugate system, 4-hydroxybutyl L-tryptophanate, the tissue was washed and excess mucous layer removed by gentle physical exfoliation (scrapping via a spatula).

mouse CD-4 (+) T-cells = test: Fluorescent tagging of T-cells, confocal Z-stack imaging; format: cell-based; conditions: 100 μL conjugate (1 mg/ml) added to 500 μL cell suspension, 24 hours
Experimental: 100 μL 4-hydroxybutyl L-tryptophanate conjugate (1 mg/ml) was added to the cell suspension solution (500 μL; 1×10^5 cells/mL) and incubated for 24 hours. Cells were washed with PBS buffer and analyzed via Z-stack imaging was to confirm internalization of the 4-hydroxybutyl L-tryptophanate conjugate. Cell imaging was done for 0, 24, 48 and 72 hours—though 24 hours was found the optimum time frame.

CT26 cells [5] = test: Uptake of Oxaliplatin by CT26 cells measured by ICP-MS; format: cell-based, mouse; conditions: for enhancement of OxPt internalization versus OxPt alone: 10 μM OxPt, 24 hours
Experimental: CT26 cells were seeded in 24-well plate (100.000 cells/mL/well) exposed to Oxaliplatin (Ox-Pt, 10 μM and 30 μM) with/and without conjugate the molar ratio of 1:1, 1:3 and 3:1 respectively. After 1, 4, 24 hours of incubation, media was discarded and the cells were washed with PBS twice, once with heparin (to remove anything associated externally with the cell membrane) and once more with PBS. Then the cells were detached from the wells using trypsin and cells were counted. Finally, each sample was diluted in HCl acid and further diluted in 2% HCl with (0.5 ppb Ir), then Pt content was measured in the ICP-MS.

CT26 cells [6] = test: Internalization of resiquimod (R848) in CT26 cells detected by HPLC; format: cell-based, mouse
Experimental: CT26 cells were seeded in 24-well plates (10^5 cells/well). After 24 hours the cells were treated with either 100 or 300 μM concentration of resiquimod (R848) alone or in combination with the 4-hydroxybutyl L-tryptophanate conjugate. After 4 and 24 hours incubation cells were washed with cold PBS and with heparin solution (0.1 mg/mL heparin in PBS), and detached from the wells using trypsin. Then the cells were diluted in acetonitrile with 0.1% TFA and the amount of R848 was detected by HPLC.

[7] = In vivo insulin delivery and bioavailability experiment, oral enteric-coated capsule; parameters: species or system Sprague-Dawley rats
Experimental: […] Insulin dosage was estimated to be ˜120 I.U. The capsule was mechanically guided across the duodenum and rat-tail plasma samples were collected for a period of 3 hours (at specified periodic intervals). Blood glucose measurement was made with Glucometer and plasma insulin concentration via ELISA.

Compound: INS-FITC: fluorescently labelled insulin, insulin conjugated with FITC [reference compound]
internalization in cells (share of cells) (CT26 colon cancer cells; INS-FITC alone): 100%

Compound: CC(=O)O[C@H]1C(=O)[C@@]2(C)[C@H]([C@H](OC(=O)c3ccccc3)[C@]3(O)C[C@H](OC(=O)[C@H](O)[C@@H](NC(=O)c4ccccc4)c4ccccc4)C(C)=C1C3(C)C)[C@]1(OC(C)=O)CO[C@@H]1C[C@@H]2O [PTX, Paclitaxel, reference compound]
% cells uptake (1 h), CT-26 cells with PTX internalized (CT-26 cells [1]; PTX 10 μM alone, 1 h): 2.3%
% cells uptake (4 h), CT-26 cells with PTX internalized (CT-26 cells [1]; PTX 10 μM alone, 4 h): 2.4%
% cells with uptake (24 h), CT-26 cells with PTX internalized (CT-26 cells [1]; PTX 10 μM alone): 7.7%
% cells uptake (1 h), CT-26 cells with PTX internalized (CT-26 cells [1]; PTX 30 μM alone, 1 h): 2.2%
% cells uptake (4 h), CT-26 cells with PTX internalized (CT-26 cells [1]; PTX 30 μM alone, 4 h): 3.0%
% cells with uptake (24 h), CT-26 cells with PTX internalized (CT-26 cells [1]; PTX 30 μM alone): 7.6%

condition of CT-26 cells and membranes after co-administration (CT-26 cells [2]; conjugate 1 mg/ml + EtDi 2 μl/ml, 1 hour): healthy with fully intact membranes
fluorescence signal on tissue (tissue binding and transmembrane penetration) ([4]; conjugate 1 mg/ml (3.65 mM), 1 hour incubation, tissue washed, excess mucous layer removed): clear fluorescence signal
Compound: N[C@@H](Cc1c[nH]c2ccccc12)C(=O)OCCCCO [4-hydroxybutyl L-tryptophanate]
internalization of Ethidium-homodimer (EtDi) (CT-26 cells [2]; EtDi 2 μl/ml co-administered with conjugate 1 mg/ml, 1 hour): confirmed; also recorded: got internalized into the cells
increase of EtDi fluorescence (mean pixel intensity of confocal images) compared with EtDi alone (CT-26 cells [2]; EtDi combined with the conjugate): 8.67 fold
Z-stack analysis at single cell level (CT-26 cells [2]; conjugate + EtDi): internalization of both the EtDi and conjugate
insulin signal in MALDI-TOF of cell supernatant (CT-26 cells [3]): clearly distinct
normalized fluorescence intensities on tissue versus controls on glass ([4]; conjugate 1 mg/ml, 1 hour): higher than controls incubated on a glass sample
penetration across mucosal layer and binding to gut epithelium despite repeated washes ([4]; pig intestine with mucus): deeply penetrate across mucosal layer on intestinal epithelium and bind to the tissue
% cells uptake (1 h), CT-26 cells with PTX internalized (CT-26 cells [1]; Conjugate 10 μM + PTX 10 μM, 1 h): 4.7%
% cells uptake (4 h), CT-26 cells with PTX internalized (CT-26 cells [1]; Conjugate 10 μM + PTX 10 μM, 4 h): 6.2%
% cells with uptake (24 h), CT-26 cells with PTX internalized (CT-26 cells [1]; Conjugate 10 μM + PTX 10 μM): 22.1%
% cells uptake (1 h), CT-26 cells with PTX internalized (CT-26 cells [1]; Conjugate 10 μM + PTX 30 μM, 1 h): 5.0%
% cells uptake (4 h), CT-26 cells with PTX internalized (CT-26 cells [1]; Conjugate 10 μM + PTX 30 μM, 4 h): 6.9%
% cells with uptake (24 h), CT-26 cells with PTX internalized (CT-26 cells [1]; Conjugate 10 μM + PTX 30 μM): 29.2%
% cells uptake (1 h), CT-26 cells with PTX internalized (CT-26 cells [1]; Conjugate 30 μM + PTX 10 μM, 1 h): 11.2%
% cells uptake (4 h), CT-26 cells with PTX internalized (CT-26 cells [1]; Conjugate 30 μM + PTX 10 μM, 4 h): 17.6%
% cells with uptake (24 h), CT-26 cells with PTX internalized (CT-26 cells [1]; Conjugate 30 μM + PTX 10 μM, listed as Conjugate): 49.8%
% cells with uptake (24 h), CT-26 cells with PTX internalized (CT-26 cells [1]; Conjugate 30 μM + PTX 10 μM, listed as conjugate): up to 50%
Percentage increase in PTX signal (MFI) compared to PTX alone; head: % cells with uptake (24 h) (CT-26 cells [1]; PTX 10 μM, Conjugate:PTX molar ratio 1:1 (10:10)): 22.3%
Percentage increase in PTX signal (MFI) compared to PTX alone; head: % cells uptake (1 h) (CT-26 cells [1]; PTX 10 μM, Conjugate:PTX molar ratio 1:1, 1 h): 6.8%
Percentage increase in PTX signal (MFI) compared to PTX alone; head: % cells uptake (4 h) (CT-26 cells [1]; PTX 10 μM, Conjugate:PTX molar ratio 1:1, 4 h): 12.4%
Percentage increase in PTX signal (MFI) compared to PTX alone; head: % cells uptake (1 h) (CT-26 cells [1]; PTX 10 μM, Conjugate:PTX molar ratio 3:1 (30:10), 1 h): 20.6%
Percentage increase in PTX signal (MFI) compared to PTX alone; head: % cells uptake (1 h) (CT-26 cells [1]; PTX 10 μM, Conjugate:PTX molar ratio 3:1 (30:10), 1 h, listed as Conjugate): 7.8%
Percentage increase in PTX signal (MFI) compared to PTX alone; head: % cells uptake (4 h) (CT-26 cells [1]; PTX 10 μM, Conjugate:PTX molar ratio 3:1 (30:10), 4 h): 32.4%
Percentage increase in PTX signal (MFI) compared to PTX alone; head: % cells uptake (4 h) (CT-26 cells [1]; PTX 10 μM, Conjugate:PTX molar ratio 3:1 (30:10), 4 h, listed as Conjugate): 11.4%
Percentage increase in PTX signal (MFI) compared to PTX alone; head: % cells with uptake (24 h) (CT-26 cells [1]; PTX 10 μM, Conjugate:PTX molar ratio 3:1 (30:10)): 56.2%
Percentage increase in PTX signal (MFI) compared to PTX alone; head: % cells with uptake (24 h) (CT-26 cells [1]; PTX 10 μM, Conjugate:PTX molar ratio 3:1 (30:10), listed as Conjugate): 27.1%
Percentage increase in PTX signal (MFI) compared to PTX alone; head: % cells uptake (1 h) (CT-26 cells [1]; PTX 30 μM, Conjugate:PTX molar ratio 1:3 (10:30), 1 h): 20.6%
Percentage increase in PTX signal (MFI) compared to PTX alone; head: % cells uptake (4 h) (CT-26 cells [1]; PTX 30 μM, Conjugate:PTX molar ratio 1:3 (10:30), 4 h): 32.4%
Percentage increase in PTX signal (MFI) compared to PTX alone; head: % cells with uptake (24 h) (CT-26 cells [1]; PTX 30 μM, Conjugate:PTX molar ratio 1:3 (10:30)): 27.1%
Percentage increase in PTX signal (MFI) compared to PTX alone; head: % cells with uptake (24 h) (CT-26 cells [1]; PTX 30 μM, Conjugate:PTX molar ratio 1:3 (10:30), listed as Conjugate): 56.2%
cellular internalization of the conjugate (Z-stack imaging, fluorescence 488 nm) (mouse CD-4 (+) T-cells): confirmed cellular internalization
enhancement of OxPt internalization versus OxPt alone (CT26 cells [5]; conjugate:OxPt 10:10 molar ratio): 37.6%
enhancement of OxPt internalization versus OxPt alone (CT26 cells [5]; conjugate:OxPt 30:10 molar ratio): 23.5%
internalization percentage of OxPt increased to (CT26 cells [5]; 30 μM OxPt, 10:30 ratio (Conj.:OxPt)): 451%
Pt signal in CT26 cells compared to OxPt alone (CT26 cells [5]; combination of OxPt and the conjugate, overall): increased amount of Pt signal
Fold increase internalization of resiquimod (R848) compared to R848 alone (CT26 cells [6]; conjugate (100 μM) + R848 (100 μM), 4 hours, listed as 4-hydroxybutyl L-tryptophanate conjugate): 4.9 fold
Fold increase internalization of resiquimod (R848) compared to R848 alone (CT26 cells [6]; conjugate (100 μM) + R848 (100 μM), 24 hours): 0.9 fold
Fold increase internalization of resiquimod (R848) compared to R848 alone (CT26 cells [6]; conjugate (100 μM) + R848 (300 μM), 4 hours): 1.4 fold
Fold increase internalization of resiquimod (R848) compared to R848 alone (CT26 cells [6]; conjugate (100 μM) + R848 (300 μM), 24 hours): 1.8 fold
Fold increase internalization of resiquimod (R848) compared to R848 alone (CT26 cells [6]; conjugate (300 μM) + R848 (100 μM), 4 hours): 1.5 fold
Fold increase internalization of resiquimod (R848) compared to R848 alone (CT26 cells [6]; conjugate (300 μM) + R848 (100 μM), 24 hours): 1.1 fold
fluorescence under fluorescent microscope (CT26 colon cancer cells; conjugate alone, post 24-hours incubation): No observable fluorescence
percentage increase of INS-FITC internalization (MFI) compared to free insulin at the same concentration (CT26 colon cancer cells; conjugate to insulin 30:10 μM, 24 hours): around 72.3%
percentage increase of INS-FITC internalization (MFI) (CT26 colon cancer cells; conjugate:INS-FITC 10:10 μM, 4 hours): 20.5%
percentage increase of INS-FITC internalization (MFI) (CT26 colon cancer cells; insulin to conjugate 30:10 μM, constant from 4 to 24 hours): 11.4%
drop in blood sugar ([7]; insulin 1.1 mg (~80 I.U) + conjugate 8 mg, within twenty minutes, n=3): ~15%
drop in blood sugar ([7]; insulin 1.5 mg (~120 I.U.) + conjugate 0.5 mg, within the first hour, n=2): ~20%
